Reference: patent US20250263370A1 (Tay Therapeutics Limited, priority 2022, published 2025)

How the values were obtained:
[1] = Intrinsic clearance in liver microsomes, mouse; type: in vitro ADME; conditions: pH 7.4, Method 2, read-out: Half-Life (T1/2) (min), Mouse
Description: From stock solution of compound on 10 mM DMSO, a working solution of 0.1 mM is prepared by diluting the compound in DMSO. 6.25 μL of a 20 mg/mL solution of microsomes in PBS pH 7.4 buffer is added to 216.25 μL PBS pH 7.4 buffer (final microsome concentration—0.5 mg/mL). 25 μL of 10 mM solution of NADPH in PBS pH 7.4 buffer is added to the incubations (final NADPH concentration—1 mM). The mixture is pre-warmed to 37° C. for 10 minutes. 2.5 μL of test compound working solution is added (final compound concentration—1 μM with 1% DMSO). Aliquots of 30 μL are taken from the reaction solution at 0.5, 5, 15, 30 and 60 minutes. The reaction was stopped by the addition of 5 volumes of cold acetonitrile with IS (100 nM alprazolam, 200 nM caffeine and 100 nM tolbutamide). Samples were centrifuged at 3, 220 g for 40 minutes. Aliquots of 100 μL of the supernatant are mixed with 100 μL of ultra-pure H2O and used for LC-MS/MS analysis. The percent compound remaining at each time point is calculated with respect to that of the 0.5 min sample. The data are analysed to calculate half-life. Control experiments are run without NADPH and blank samples are prepared using DMSO without the test compound.
A 50 mM stock solution (in DMSO) is prepared for the compound. From the stock solution, a working solution of 0.5 mM is prepared by diluting the compound in DMSO. This concentration of working solution is prepared considering a final concentration of 1 uM with 0.1% DMSO. The compound (1 μL of working solution) is spiked in PBS with pH 7.4 ([…]) at a concentration of 1 μM. Subsequently, 110 μL of 10 mM NADPH is added (as a co-factor). The sample is incubated at 37° C. for 15 min. Following this, pre-warmed liver microsomes (27.5 μL; final protein conc. 0.5 mg/mL) are added. The samples are then incubated at 37° C. Aliquots of samples are withdrawn at 0, 5, 15, 30, 45 and 60 min. The reaction is stopped by using chilled acetonitrile containing internal standard. The samples are centrifuged, and the supernatants analysed by LC-MS/MS. The percent compound remaining at each time point is calculated with respect to that of the 0 min sample. The data are then analysed to calculate half-life and intrinsic clearance (CLint). Control experiments are run without NADPH and blank samples are prepared using DMSO without the test compound.

BRD4 BD2 = BRD4 BD2 (Homo sapiens (Human), UniProt O60885); assay: NanoBRET bromodomain assay, NanoLuc-BRD4-BD2 fusion in HEK293 cells; conditions: for IC50: BRD4 BD2 (IC50), NanoBRET, HEK293 cells, top concentration 10 μM; for Fold selectivity: IC50 for BRD4 BD1 divided by IC50 for BRD4 BD2, qualitative if an IC50 is at the upper limit;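 as to all read-outs here: tracer displacement BRET read in transfected cells after 2 h compound exposure at 37 °C, signal in milliBRET units corrected against no-tracer background wells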
BRD4 BD1 = BRD4 BD1 (Homo sapiens (Human), UniProt O60885); assay: NanoBRET bromodomain assay, NanoLuc-BRD4-BD1 fusion in HEK293 cells; type: cell-based; conditions: top concentration 10 μM

Compound	half-life at 1 μM [1] [min]	IC50 (BRD4 BD2) [nM]	Fold selectivity (BRD4 BD2)	IC50 (BRD4 BD1) [µM]
CNC(=O)c1[nH]c(C(=O)NC23CC(O)(C2)C3)cc1O[C@@H](C)c1ccccc1 [Example 118, (S)—N^5-(3-hydroxybicyclo [1.1.1]pentan-1-yl)-N^2-methyl-3-(1-phenylethoxy)-1H-pyrrole-2,5-dicarboxamide]	> 60	50 to 200	XX (Fold >50 and ≤200)	≥ 10
CNC(=O)c1[nH]c(C(=O)N[C@H]2CCOC2)cc1O[C@@H](C)c1ccccc1 [Example 113, N^2-methyl-3-((S)-1-phenylethoxy)-N^5-((S)-tetrahydrofuran-3-yl)-1H-pyrrole-2,5-dicarboxamide]	> 60	200 to 1000	X (Fold >2 and ≤50)	≥ 10
CNC(=O)c1[nH]c(C(=O)NC(C)C)cc1O[C@@H](C)c1ccccc1 [Example 105, (S)—N^5-isopropyl-N^2-methyl-3-(1-phenylethoxy)-1H-pyrrole-2,5-dicarboxamide]	> 60	200 to 1000	X (Fold >2 and ≤50)	≥ 10
